System: herpes simplex virus (HSV)
Assay: HSV infection in mice, disease severity by hind-limb paralysis score
Type: in vivo
Details: male BALB/c mice, ip once a day; MPUB-EtOH 250 mg/kg, acyclovir 10 mg/kg; versus DMSO-treated controls; FIG. 10
Method: To investigate the antiviral effects of C. versicolor extract in vivo, 3-week-old male BALB/c mice (15 mice per group) were administrated intraperitoneally (ip) with dimethyl sulfoxide (DMSO) (solvent for MPUB-EtOH) or MPUB-EtOH (250 mg/kg) once a day at 24 hr intervals for […].
Briefly, the mice were infected with inoculation of HSV ip at 1×10^5 TCID50/ml at day 0. DMSO, MPUB-EtOH or acyclovir (10 mg/kg) were administrated ip once a day at 24 hr intervals for 5 days starting 1 hr after infection. The mice were inspected daily and the disease severity was measured by hind-limb(s) paralysis based on the following scoring system: 0, no paralysis; 1, obvious difficulty in movement of hind limbs; 2, one hind limb incomplete paralysis; 3, one hind limb complete paralysis; 4, both hind limbs incomplete paralysis; 5, both hind limbs complete paralysis.

In the case of `Nc1nc2c(ncn2COCCO)c(=O)[nH]1` [acyclovir], the “severity of HSV infection (hind-limb paralysis score 0-5)” value is reported as “comparable”.
